Measured values as given in publication PMC5069690, “Hepatic 3D spheroid models for the detection and study of compounds with cholestatic liability” (Scientific Reports, 2016).
pEC50, pIC50: −log10 of the molar value. Several values for one entry are separate records, joined by “and”; a condition that tells them apart may be missing. Identical values can stand only once. Like-named read-outs stand apart in the source and are kept apart here.

What was measured:
PHH spheroids [1] = test: Toxicity in PHH spheroids with or without BA mixture, albumin secretion read-out (Supplementary Fig. S2); details: 8 days, Supplementary Fig. S2B
Method: (§5) Stock solutions of the compounds were diluted in culture medium to a maximal final DMSO concentration of 0.3% for PHH spheroids and 0.6% for HepaRG spheroids. Toxicity studies were started at day 8 and day 5 for PHH and HepaRG spheroids, respectively. Spheroids were treated every other day with the compounds in the presence or absence of the BA mixture. Cellular ATP content was determined as a marker of cell viability using the CellTiter-Glo Luminescent Cell Viability Assay (Promega, Sweden). When indicated, albumin concentrations were determined by ELISA (Bethyl laboratories, USA).
(§6) To evaluate the cholestatic risk of the tested compounds we introduced the cholestatic index (CIx). The CIx is defined as the ratio between the EC50-value from co-exposure to a compound and the BA mixture and the EC50-value from exposure to the compound alone.

[2] = test system: F-actin cytoskeleton in PHH spheroids; test: F-actin cytoskeleton integrity (Phalloidin staining) in PHH spheroids; format: cell-based, human; details: 8 days
Method: (§1) Spheroids were fixed in 4% paraformaldehyde at 4 °C O/N. Immunohistochemistry was performed on cryosections (8 μm) for BSEP (Atlas, Sweden) and MRP2 (Abcam, UK). […] F-actin was visualized using Alexa Fluor 488 Phalloidin. Slides were mounted with ProLong Gold Antifade Mountant with DAPI and fluorescence was assessed by confocal microscopy (Zeiss LSM 710). Surface expression of the BA transporters was quantified using CellProfiler software.

HepaRG spheroids [3] = test: Bile acid accumulation (fluorescent taurocholic acid derivative, confocal microscopy) in HepaRG spheroids; format: cell-based, human
Method: (§2) BA accumulation was assessed with a fluorescently labelled taurocholic acid derivative, tauro-nor-THCA-25-DBD (Genomembrane Company, Ltd, Japan). After 6 days of chlorpromazine exposure, the spheroids were co-exposed to chlorpromazine and 20 μM tauro-nor-THCA-25-DBD for an additional 2 days. Fluorescence was assessed by confocal microscopy (Zeiss LSM 710).

[4] = test system: ABCB11, SRXN1, NFE2L2, DR5 expression in PHH spheroids; test: RT-qPCR gene expression in PHH spheroids; format: cell-based, human; details: 8 days
Method: (§3) Total RNA was extracted using Qiazol according to the manufacturer’s protocol. RNA was reverse-transcribed into cDNA with SuperScript III reverse transcriptase. RT-qPCR analysis was performed with a 7500 Fast Real-Time PCR system using a TaqMan Universal or SYBR Green mix.

[5] = test system: F-actin cytoskeleton in HepaRG spheroids; test: F-actin cytoskeleton integrity (Phalloidin staining) in HepaRG spheroids; format: cell-based, human; details: 8 days
Method: as §1

HepaRG spheroids [6] = test: Repeated-exposure toxicity in HepaRG spheroids with or without BA mixture, cellular ATP content; format: cell-based, human; details: for Cholestatic Index (EC50 (+BA) / EC50 (-BA)) / CC50: ATP, one value per independent experiment; for CC50: Homo sapiens, HepaRG, compound alone, read-out: Without BA EC50
Method: Cryopreserved differentiated HepaRG cells (Biopredic International, France) were thawed according to the supplier’s instructions. The cells were seeded in Williams’ medium E with GlutaMAX^TM containing the thaw, seed and general purpose additive (ADD670; Biopredic International). The cells were seeded at a density of 2,000 viable cells per well in ULA plates. From day 5, the spheroids were maintained in medium containing 0.5% DMSO, the serum-free induction additive (ADD650, Biopredic International), 20 ng/ml epidermal growth factor and 10 ng/ml hepatocyte growth factor (HumaXpress, Nordic BioSite, Sweden).
(§4) Toxicity studies were started at day 8 and day 5 for PHH and HepaRG spheroids, respectively.

BSEP = details: quoted in the discussion, no reference given; read-out: BSEP inhibition IC50; cited from earlier work
[7] = test system: ABCB11, SRXN1, NFE2L2, DR5 expression in HepaRG spheroids; test: RT-qPCR gene expression in HepaRG spheroids; format: cell-based, human; details: 8 days
Method: as §3

PHH spheroids [8] = test: Repeated-exposure toxicity in PHH spheroids with or without BA mixture, cellular ATP content; details: for CC50: Homo sapiens; for CC50 / Cholestatic Index (EC50 (+BA) / EC50 (-BA)): one value per independent experiment; for Cholestatic Index (EC50 (+BA) / EC50 (-BA)): ATP;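 on all read-outs here: primary human hepatocyte spheroids dosed every second day with compound, with or without a bile acid mixture, viability read as cellular ATP by luminescence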
Method: Cryopreserved PHH (Bioreclamation IVT, USA) were thawed according to the supplier’s instructions. The cells were seeded in PHH medium (Williams’ medium E containing 100 units/ml penicillin, 100 μg/ml streptomycin, 2 mM L-glutamine, 10 μg/ml insulin, 5.5 μg/ml transferrin, 6.7 ng/ml sodium selenite, 100 nM dexamethasone) supplemented with 10% fetal bovine serum. The cells were seeded at a density of 1,500 viable cells per well in ultra-low attachment (ULA) plates (Corning). When PHH had reassembled into compact aggregates (day 4–6 after seeding), spheroids were shifted to serum-free PHH medium. […] The hepatocytes were derived from 5 male and 5 female donors and were aggregated into 3D microtissues in GravityPLUS™ hanging drop plates and cultivated and assayed in GravityTRAP™ plates. The spheroids were maintained in serum-free PHH medium.
as §5, §6

[9] = test system: multi-donor PHH spheroids; test: Repeated-exposure toxicity in multi-donor PHH spheroids with or without BA mixture, albumin secretion; format: cell-based, human; details: for pEC50: Homo sapiens, 336 h, multi-donor PHH spheroids (10 donors), 14 days repeated exposure, albumin secretion
Method: The cells were seeded in PHH medium (Williams’ medium E containing 100 units/ml penicillin, 100 μg/ml streptomycin, 2 mM L-glutamine, 10 μg/ml insulin, 5.5 μg/ml transferrin, 6.7 ng/ml sodium selenite, 100 nM dexamethasone) supplemented with 10% fetal bovine serum. […] When PHH had reassembled into compact aggregates (day 4–6 after seeding), spheroids were shifted to serum-free PHH medium. […] The spheroids were maintained in serum-free PHH medium.
as §4

PHH spheroids [10] = test: Bile acid accumulation (fluorescent taurocholic acid derivative, confocal microscopy) in PHH spheroids; format: cell-based, human; details: repeated exposure for 8 days
Method: as §2

[11] = co-exposure with non-toxic BA mixture compared to compound or BAs alone

## CN(C)CCCN1c2ccccc2Sc2ccc(Cl)cc21 [Chlorpromazine, chlorpromazine]
PHH spheroids [1]
  CIx: 0.69
[2]
  F-actin expression and integrity: reduced F-actin expression and disrupted its integrity
HepaRG spheroids [3]; 10 μM, 8 days
  toxicity to the spheroids: toxic
HepaRG spheroids [3]; repeated exposure for 8 days
  intracellular BA accumulation (tauro-nor-THCA-24-DBD): cytoplasmic accumulation
[4]; [11]
  DR5 expression: significantly induced DR5
  NFE2L2 expression: significantly further increased NFE2L2 expression
  SRXN1 expression: significant induction of SRXN1
[4]; normalized to GAPDH
  expression of ABCB11, encoding BSEP: inhibited the expression of ABCB11
[4]; toxic concentration alone (80x BA; 12.5 µM CPZ), Supplementary Fig. S3
  DR5 expression: no change in DR5 expression
[5]
  F-actin expression and integrity: reduced F-actin expression and disrupted its integrity
HepaRG spheroids [6]; 8 days
  Cholestatic risk classification based on CIx: low cholestatic risk (Compounds with a CIx ≥ 0.80)
  Cholestatic Index (EC50 (+BA) / EC50 (-BA)): 0.88 and 0.81 and 0.93
HepaRG spheroids [6]; 8 days co-exposure with BAs vs compound alone
  CIx (mean of the independent experiments): 0.87 ± 0.06
HepaRG spheroids [6]; 14 days
  Cholestatic risk classification based on CIx: cholestatic risk (compounds with a CIx ≤ 0.80 were considered to have cholestatic risk)
  Cholestatic Index (EC50 (+BA) / EC50 (-BA)): 0.63 and 0.65 and 0.69
HepaRG spheroids [6]; 14 days of repeated exposure
  CIx (mean of the independent experiments): 0.66 ± 0.03
HepaRG spheroids [6]; 192 h, 8 days repeated exposure
  CC50: 17 µM
HepaRG spheroids [6]; 336 h, 14 days repeated exposure
  CC50: 14 µM
BSEP
  pIC50: 3.83
[7]; [11]
  DR5 expression: significantly induced DR5
  NFE2L2 expression: significantly further increased NFE2L2 expression
  SRXN1 expression: significant induction of SRXN1
[7]; normalized to GAPDH
  expression of ABCB11, encoding BSEP: inhibited the expression of ABCB11
PHH spheroids [8]; 192 h, read-out: Without BA EC50, PHH spheroids, 8 days repeated exposure, compound alone, ATP
  CC50: 14 µM
PHH spheroids [8]; 336 h, read-out: Without BA EC50, PHH spheroids, 14 days repeated exposure, compound alone, ATP
  CC50: 12 µM
PHH spheroids [8]; PHH spheroids, 8 days
  Cholestatic risk classification based on CIx: low cholestatic risk (Compounds with a CIx ≥ 0.80)
  Cholestatic Index (EC50 (+BA) / EC50 (-BA)): 0.85 and 1.07 and 0.83
PHH spheroids [8]; PHH spheroids, 8 days co-exposure with BAs vs compound alone
  CIx (mean of the independent experiments): 0.90 ± 0.12
PHH spheroids [8]; PHH spheroids, 8 days, cellular ATP content read-out, Supplementary Fig. S2A
  CIx: 0.75
PHH spheroids [8]; PHH spheroids, 14 days
  Cholestatic risk classification based on CIx: cholestatic risk (compounds with a CIx ≤ 0.80 were considered to have cholestatic risk)
  Cholestatic Index (EC50 (+BA) / EC50 (-BA)): 0.80 and 0.71 and 0.77
[9]; co-exposure with BA mixture, read-out: With BA EC50
  pEC50: 5.77
[9]; compound alone, read-out: Without BA EC50
  pEC50: 5.35
[9]; both, human, 14 days
  Cholestatic Index (EC50 (+BA) / EC50 (-BA)): 0.38
PHH spheroids [10]
  intracellular BA accumulation (tauro-nor-THCA-24-DBD): cytoplasmic accumulation
